In ChEMBL document CHEMBL5724558, “Image-based profiling of drug vulnerabilities in CRC organoids” (2024):
Several values for one entry are separate records, joined by “and”; a condition that tells them apart may be missing. Identical values can stand only once.

Experiments:
Type in all cases: functional, Homo sapiens
Design in all cases: dose or concentration left out as unconfirmed
Colon cancer organoid [1] = assay: (§1) Image-based profiling of donated chemical probes and chemogenomic kinase set in O06 CRC organoid. Image analysis is performed on the sum area metric, and the data were normalized to the DMSO control. After imaging the organoid viability is measured using the OneGloEX Luciferase Assay System. The normalized viability data and sum area are reported.
Colon cancer organoid [2] = assay: as §1, with “O09” for “O06”
Colon cancer organoid [3] = assay: as §1, with “O21” for “O06”

| SMILES | Cell Viability (Colon cancer organoid [1]; Replication number 1) | Cell Viability (Colon cancer organoid [2]; Replication number 1) | Cell Viability (Colon cancer organoid [2]; Replication number 2) | Cell Viability (Colon cancer organoid [3]; Replication number 1) | Cell Viability (Colon cancer organoid [3]; Replication number 2) | Cell Viability (Colon cancer organoid [1]; Replication number 2) |
| --- | --- | --- | --- | --- | --- | --- |
| CCC(=O)N1CCN(c2ccc(-n3c(=O)ccc4cnc5ccc(-c6cnc7ccccc7c6)cc5c43)cc2C(F)(F)F)CC1 [TORIN1] | 3.399% and 11.5065% | 18.1039% and 19.199% | 16.4682% and 14.0105% | 35.688% and 65.784% | 42.752% and 81.756% |  |
| Cc1nc(C2CCN(C(=O)c3ccc(OC(F)(F)F)cc3N)CC2)c2ncc(N3CCN(C)CC3)cc2n1 [BAY-693] | 107.628% and 117.814% | 87.1033% and 97.7241% | 88.4972% and 107.653% | 120.305% and 115.678% | 95.3265% and 86.6757% | 129.663% and 123.258% |
| Cc1cn(-c2cc(NC(=O)c3ccc4c(c3)CN(c3cncnc3)C[C@@H]4C)cc(C(F)(F)F)c2)cn1 | 59.0694% and 78.9076% | 138.868% and 108.886% | 120.836% and 109.134% | 90.5152% and 91.8083% | 113.206% and 94.0752% | 95.3584% and 115.454% |
| CCOc1cc(N2CCC(O)CC2)ccc1Nc1ncc2c(n1)N(C)c1ccccc1C(=O)N2C | 105.657% and 158.464% | 50.6693% and 60.5891% | 44.9186% and 56.4198% | 109.771% and 116.516% | 106.608% and 109.968% | 54.5485% and 108.792% |
| Cc1c(NC(=O)c2cc(C(N)=O)nc3cc(F)ccc23)c(C(F)(F)F)nn1Cc1ccc(C#N)cc1 [BAY-876] | 10.662% and 26.9321% | 36.4456% and 33.4484% | 36.255% and 13.5816% | 21.7392% and 19.9094% | 22.1552% and 34.1837% | 13.3809% and 14.2138% |
| CN([C@@H]1CCc2c(CC(=O)O)c3ccccc3n2C1)S(=O)(=O)c1ccc(F)cc1 [MK-7246] | 103.187% and 97.4239% | 131.189% and 119.936% | 71.8556% and 75.9401% | 86.5772% and 112.354% | 98.7828% and 96.4286% | 129.375% and 117.264% |
| COCCc1ccc(-c2c(C)nc3c(N4CCOCC4)ccnn23)cn1 [JNJ-42396302] | 105.08% and 93.5817% | 173.111% and 114.826% | 149.141% and 104.184% | 87.7084% and 77.6404% | 105.989% and 98.0422% | 103.056% and 100.227% |
| Cc1cc(F)c(C(=O)Nc2cccc(-c3nncn3C(C)C)n2)cc1-n1cnc(C2CC2)c1 [SELONSERTIB] | 102.175% and 96.1469% | 115.111% and 84.0268% | 104.846% and 82.0651% | 96.1672% and 86.9686% | 76.8515% and 83.4833% | 88.4921% and 93.9846% |
| Cn1cncc1[C@@](O)(COc1ccc(C#N)cc1-c1ccc(OC(F)(F)F)cc1)c1ccc(C#N)cc1 [A-108] | 98.5597% and 105.855% | 62.58% and 86.4879% | 152.883% and 128.222% | 75.0431% and 83.2471% | 104.838% and 112.755% | 74.5028% and 111.105% |
| Cc1c(N2CCNCC2)nc2ccc(Br)cc2c1C(=O)NC[C@H](CCC(=O)O)c1ccccc1Cl [BAY-403] | 84.3877% and 124.372% | 84.5203% and 109.166% | 120.857% and 102.102% | 86.0908% and 103.128% | 96.6508% and 95.8532% | 102.985% and 123.739% |
| CCOC(=O)CCNc1cc(N2CCc3ccccc3CC2)nc(-c2ccccn2)n1 | 148.439% and 134.336% | 78.8625% and 87.8671% | 139.531% and 105.195% | 97.5264% and 129.915% | 84.038% and 100.955% | 153.418% and 113.038% |
| CNC(=O)c1cc(C(=O)N[C@H]2[C@@H]3COC[C@@H]32)cc2c1O[C@@H](CF)[C@@H]2c1ccccc1 [GSK943] | 114.013% and 124.372% | 64.3424% and 103.726% | 87.7458% and 93.3783% | 93.124% and 115.133% | 103.782% and 108.09% | 80.0063% and 92.9841% |
| C[C@H](NC(=O)Nc1cc2[nH]ncc2c(CO)n1)c1ccccn1 [ERKi-NC] | 123.043% and 110.304% | 84.2492% and 86.249% | 90.2054% and 105.732% | 112.403% and 96.6365% | 96.9008% and 86.2245% | 54.2126% and 97.1276% |
| CN(C)C(=O)c1cc2cnc(Nc3ccc(N4CCNCC4)cn3)nc2n1C1CCCC1 [RIBOCICLIB] | 18.4025% and 48.7411% | 49.4558% and 44.8808% | 42.3849% and 44.8119% | 76.3687% and 83.6237% | 91.6892% | 14.7054% and 40.1028% |
| O=C(c1ccc(F)c(F)c1Nc1ccc(I)cc1F)N1CC(O)([C@@H]2CCCCN2)C1 [COBIMETINIB] | 2.921% and 4.652% | 5.994% and 14.4616% |  | 18.944% and 20.5157% | 17.3316% and 26.4843% | 3.136% and 6.437% |
| Cl.O=C([C@@H](Cc1cccc(C(F)(F)F)c1)NS(=O)(=O)c1cc(F)c2c(c1)CCNC2)N1CCCC1 | 106.357% and 105.584% | 80.2483% and 102.241% | 101.188% and 101.204% | 76.7615% and 83.4749% | 81.6272% and 85.3819% | 187.159% and 130.005% |
| CCN(CC)S(=O)(=O)Nc1cccc(-c2ccc3c(NC(=O)C4CC4)n[nH]c3c2)c1 | 115.301% and 130.405% | 118.731% and 102.205% | 162.059% and 116.31% | 106.348% and 90.1082% | 91.5896% and 92.3751% | 90.7141% and 75.8621% |
| CN(C)C(=O)N1CC[C@H](NC2=Nc3cc(F)ccc3N(CC(F)F)c3ccc(Cl)cc32)C1 | 112.42% and 113.793% | 91.7013% and 91.0686% | 138.489% and 113.836% | 101.162% and 105.976% | 96.6139% and 109.943% | 60.2365% and 60.6343% |
| COc1ccccc1-c1cc(N2CCN(C(=O)OC(C)(C)C)CC2)c(N)nn1 | 179.264% and 129.02% | 86.2709% and 84.3895% | 173.59% and 117.453% | 94.3574% and 85.8263% | 106.056% and 125.119% | 154.723% and 113.755% |
| CNC(=O)c1cc(C(=O)N[C@H]2[C@@H]3COC[C@@H]32)cc2c1O[C@H](CF)[C@H]2c1ccccc1 [GSK973] | 85.8672% and 112.47% | 33.6063% and 74.8406% | 64.0142% and 82.8707% | 110.582% and 117.861% | 99.9706% and 95.8532% | 108.347% and 115.089% |
| Cc1ccc(-c2ccc3c(ccc4sc5c(c43)NC[C@@H](C)NC5=O)n2)cn1 | 131.751% and 124.635% | 114.172% and 105.969% | 99.6709% and 79.9055% | 108.383% and 98.1185% | 106.246% and 104.786% | 132.52% and 124.216% |
| O=C(NCC(=O)N1CCCC1)Nc1ccc2cnccc2c1 | 118.335% and 117.664% | 77.5338% and 89.49% | 125.69% and 99.4932% | 118.981% and 107.577% | 82.9956% and 91.8258% | 145.589% and 95.8311% |
| O=C(c1ccc(C(=O)N2CCC(N3CCCC3)CC2)c(Nc2ccccc2)c1)N1CCC(N2CCCC2)CC1 | 185.477% and 131.195% | 81.7706% and 92.0402% | 143.807% and 112.037% | 116.035% and 118.746% | 94.3605% and 99.3437% | 168.44% and 129.527% |
| COc1cc(C#N)ccc1S(=O)(=O)Nc1ccc2c(c1)cc(C)c(=O)n2C | 109.695% and 120.805% | 120.569% and 113.833% | 161.546% and 95.5021% | 105.091% and 139.321% | 90.295% and 90.2148% | 114.995% and 99.8938% |
| O=C1c2ccc(Nc3ccc(F)cc3F)cc2CCc2ccc(OC[C@H](O)CO)cc21 [Skepinone-L] | 90.1352% and 107.854% | 97.726% and 98.0993% | 77.28% and 97.9381% | 124.274% and 139.142% | 112.785% and 100.442% | 111.788% and 116.531% |
| C[C@@H](c1cccc(CN)c1)n1cc(Cl)cc(C(N)=O)c1=N.Cl | 106.874% and 116.842% | 102.95% and 110.479% | 109.454% and 89.4132% | 113.852% and 117.315% | 85.2053% and 83.6166% | 95.2274% and 108.361% |
| C[C@H]1CCCN1Cc1nc2cc(NC(=O)c3ccc4cnccc4c3)ccc2[nH]1 | 103.275% and 86.0134% | 74.8227% and 68.6244% | 83.8481% and 67.5641% | 78.6097% and 94.644% | 77.6333% and 81.0859% | 127.654% and 99.8938% |
